Results taken from patent publication US20140171516A1, “GERANYLGERANYLACETONE FORMULATIONS” (COYOTE PHARMACEUTICALS, INC., priority 2012, published 2014).
Like-named read-outs stand apart in the source and are kept apart here.

Experiments:
[1] = Intraocular GGA level, topical ocular versus oral systemic administration; type: in vivo; conditions: topical ocular composition of 5% GGA versus 200 mg/kg GGA by systemic administration orally
[2] = Rat ocular pharmacokinetics study, Cohort 1: geranylgeranyl acetone concentration in eyes after topical eye drops; type: in vivo; conditions: Sprague-Dawley, 0.25 mg/eye, 8 doses, average of 3 rats

Row | SMILES | levels of geranylgeranyl acetone achieved intraocularly, topical versus oral [1] | concentration at 8 h ([2]; contralateral eye, contralateral eye concentration (ng/g in Table 7), read-out: 8 h contra AVE) [ng/g] | concentration at 8 h ([2]; treated (ipsilateral) eye, treated eye concentration (ng/g in Table 7), read-out: 8 h ispi AVE) [ng/g]
1 | CC(=O)CCC=C(C)CC/C=C(\C)CC/C=C(\C)CCC=C(C)C (mixture of isomers) [GGA, Geranylgeranyl acetone] | about 5 fold | – | –
2 | CC(=O)CC/C=C(\C)CC/C=C(\C)CC/C=C(\C)CCC=C(C)C [CNS-102, all-trans geranylgeranyl acetone] | – | 2100 | 8770
